System: African Green monkeys
Experiment: IOP after intravitreal injection in African Green monkeys, compared with PBS in the fellow eye
Format: in vivo, African Green monkey
Settings: for animals responding with a reduction in IOP of ≥30%: 4 animals
Description: Eight African Green monkeys were screened to identify 4 animals with high-normal IOP. Animals were anesthetized with ketamine 10 mg/kg and Xylazine 0.5 mg/kg. Bimatoprost acid 100 ng in 50 μl was injected intravitreally in one eye through a 30-gauge syringe using a shelved technique, and 50 μl of phosphate buffered saline (PBS) was injected into the fellow eye as a concurrent control on days 0, 1, 2 at 8:30 pm. The bimatoprost acid dose was escalated to 200 ng in 100 μl, with the same volume of PBS given to the fellow eye, on days 3 (8:30 pm) and 4 (5:30 pm). IOP was measured with a Tonovet tonometer at 8:30 am, 11:30 am and 8:30 pm on day 1; 8:30 am, 11:30 am and 5:30 pm on day 4; and at 8:30 am on days 2, 3 and 5. The person measuring the IOP was masked to treatment assignment. Slit lamp exams were performed on day 0, 1 and 5. OCTs were performed at baseline and day 5.

SMILES: O=C(O)CCC/C=C\C[C@@H]1[C@@H](/C=C/[C@@H](O)CCc2ccccc2)[C@H](O)C[C@@H]1O [bimatoprost acid]
- animals responding with a reduction in IOP of ≥30% (100 ng dose intravitreal): One of four
- reduction in IOP compared with the fellow eye (100 ng in 50 μl intravitreal, days 0, 1, 2, animal B392, at 1 timepoint): ≥ 30%
- animals responding with a reduction in IOP of ≥30% (200 ng dose intravitreal): Three of four
- IOP reduced in the treated eye compared with the fellow eye receiving PBS (200 ng dose, animal B392, day 5): 52%
- reduction in IOP compared with the fellow eye (200 ng in 100 μl intravitreal, days 3 and 4, responding animals, at 1 or more timepoints): ≥ 30%
- IOP response (animal B300, 100 ng and 200 ng doses): did not respond to either dose
